Data set [1] in a line: Body weight and adverse effects in Dp-sensitized mice. Type of data set: in vivo, mouse. Particulars: 10 mg/kg i.p. An excerpt:
Six-week-old female BALB/c mice (15–20 g) were purchased from CLEA Japan Inc. (Tokyo, Japan). Mice were maintained in the animal facility of the University of Tokushima according to the guidelines of the ethics committee of our university. The present study was approved by Institutional Animal Care and Use Committee of the University of Tokushima (Permission Number: 11134). Mice were housed under specific pathogen-free conditions with 12-h light/dark cycle in a temperature-controlled room with free access to food and water. Mice were monitored weekly for body weight and daily for food and water intake and assessed visually for signs of clinical disease including inactivity, labored respiration and ruffled fur.
(§1) All mice were sensitized on days 0 and 7 by intraperitoneal injections of 10 μg of Dp dissolved in 500 μL saline and mixed with 1mg of Alum (Sigma-Aldrich Japan). Dp-sensitized mice were challenged intranasally with 10 μg (10 μL) Dp in 70 μL saline on alternate days, 3 days per week, from days 14 to 67. The mice were also treated intraperitoneally with IMD-4690 (10 mg/kg) (Dp/IMD group) or CMC alone (Dp/CMC group) at the same day with Dp challenge. As a control, mice were challenged with saline and given CMC during this period (control/CMC group) (Fig. 1A). Each experiment was performed using six mice per group.

Data set [2] relates to chronic allergen exposure model of bronchial asthma in mice. The experiment in a line: Lung resistance (RL) by restrained whole body plethysmography, chronic Dp asthma model. To be noted: at 25 and 50 mg/mL of Mch, day 70, 10 mg/kg i.p., vs Dp/CMC mice. Type of data set: in vivo, mouse. On the procedure: as §1
Seventy-two hours after the final challenge (day 70), lung resistance (RL) was measured by restrained whole body plethysmography (Buxco Electronics). Mice were anesthetized by 6 mg/mL 2,2,2-tribromoethanol with 2-methyl-2-butanol. Then mice were tracheostomized and cannulated with a 19-gauge tracheostomy tube, and were placed in the chamber for plethysmography and mechanically ventilated. Aerosolized β-methacholine (Mch) was administered by an in-line aerosol delivery system at different concentrations (6.25, 12.5, 25, and 50 mg/mL). After each Mch challenge, data were continuously collected, and values of RL were taken to express the changes in these functional parameters. The data were expressed as the percentage change from baseline RL obtained after inhalation of saline.

With `CC(C)(C)c1ccc(Oc2cc(-c3ccc(OC(F)(F)F)cc3)ccc2OCC(=O)O)cc1` [IMD-4690, 2-[[3-(4-tert-Butylphenoxy)-4'-(trifluoromethoxy) [1,1'-biphenyl]-4-yl]oxy] acetic acid], the “Adverse effects in the mouse model” value in data set [1] (chronic Dp model) was “could not find any adverse effects”. Besides, in data set [1] (Dp-sensitized mice), the “Changes in body weight” value was “did not show any weight loss”. For the same compound, in data set [2], the “Airway resistance (RL)” value is listed as “significantly reduced”.

(Values after publication PMC4364779, “IMD-4690, a Novel Specific Inhibitor for Plasminogen Activator Inhibitor-1, Reduces Allergic Airway Remodeling in a Mouse Model of Chronic Asthma via Regulating Angiogenesis and Remodeling-Related Mediators” (PLoS ONE, 2015).)
